By EC50 is commonly meant the concentration at which the effect is half-maximal.

Common to all, as to format: cell-based
In one assay the target is T1, GCGR (Homo sapiens, UniProt P47871).
T1 construct: expressed in transfected cells; host or cells: HEK293 (HEK293-GCGR)
The experiment in a line: In vitro cell activity, cAMP production in HEK293 cells expressing GCGR. Particulars: HEK293-GCGR cells, cAMP; read-out: GCGR (EC50). In short, it runs like this:
(§1)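 HEK293 transfectants, 4×10^5 cells/mL, 384-well. Detection: cAMP-d2 + anti-cAMP cryptate 1:1, RT 1 h dark or 4 °C o/n. Read 665/620 nm; 4-parameter nonlinear fit → EC50.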
(In general: cAMP levels reflect the balance of adenylyl cyclase and phosphodiesterase activity.)

The target in a further assay is T2, GLP-1R (Homo sapiens, UniProt P43220).
T2 construct: expressed in transfected cells; host or cells: HEK293 (HEK293-GLP-1R)
The experiment in a line: In vitro cell activity, cAMP production in HEK293 cells expressing GLP-1R. The settings on record: HEK293-GLP-1R cells, cAMP; read-out: GLP-1R (EC50). In short, it runs like this: as §1

A further assay concerns the target T3, GIPR (Homo sapiens, UniProt P48546).
T3 construct: expressed in transfected cells; host or cells: HEK293 (HEK293-GIPR)
T3 sequence (P48546 22-466): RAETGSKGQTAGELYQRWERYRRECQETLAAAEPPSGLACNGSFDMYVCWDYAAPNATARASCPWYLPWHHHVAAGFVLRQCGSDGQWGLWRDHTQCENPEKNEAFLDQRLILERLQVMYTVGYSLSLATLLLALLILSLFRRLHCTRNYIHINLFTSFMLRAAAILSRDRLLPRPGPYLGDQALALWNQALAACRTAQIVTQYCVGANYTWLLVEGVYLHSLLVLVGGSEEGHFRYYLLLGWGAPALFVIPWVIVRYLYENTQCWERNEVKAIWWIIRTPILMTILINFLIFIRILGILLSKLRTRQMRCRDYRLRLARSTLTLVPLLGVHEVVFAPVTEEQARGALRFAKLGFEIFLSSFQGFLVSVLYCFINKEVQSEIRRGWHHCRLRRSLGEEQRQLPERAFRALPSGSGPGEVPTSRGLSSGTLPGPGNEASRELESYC
Briefly: In vitro cell activity, cAMP production in HEK293 cells expressing GIPR. The settings on record: HEK293-GIPR cells, cAMP; read-out: GIPR (EC50). An outline of the steps:
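HEK293 cells expressing human GIPR, thawed and diluted to 4×10^5 cells/mL, are stimulated with test compound. cAMP is measured by HTRF competition between cAMP-d2 and anti-cAMP cryptate. EC50 comes from a four-parameter nonlinear fit of signal ratio against concentration.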

Starred links: 1 amine or outer side, 2 acyl side, 3 side chain; linkers in the order of their positions; H or OH if unused. Non-standard residues stand in square brackets, D forms with d. Residues, ends and D or L forms follow the SMILES beside them. Groups on a side chain read outwards from the residue. *: point of attachment. C18 diacid = O=C(O)CCCCCCCCCCCCCCCCC(=O)*; αMePhe(2-F) = C[C@](N)(Cc1ccccc1F)C(=O)O; γGlu = O=C(O)[C@H](CCC(=O)[*:2])N[*:1]; AEEA = NCCOCCOCC(=O)O; Aib = CC(C)(N)C(=O)O

T1 sequence (P47871 26-477, species assumed): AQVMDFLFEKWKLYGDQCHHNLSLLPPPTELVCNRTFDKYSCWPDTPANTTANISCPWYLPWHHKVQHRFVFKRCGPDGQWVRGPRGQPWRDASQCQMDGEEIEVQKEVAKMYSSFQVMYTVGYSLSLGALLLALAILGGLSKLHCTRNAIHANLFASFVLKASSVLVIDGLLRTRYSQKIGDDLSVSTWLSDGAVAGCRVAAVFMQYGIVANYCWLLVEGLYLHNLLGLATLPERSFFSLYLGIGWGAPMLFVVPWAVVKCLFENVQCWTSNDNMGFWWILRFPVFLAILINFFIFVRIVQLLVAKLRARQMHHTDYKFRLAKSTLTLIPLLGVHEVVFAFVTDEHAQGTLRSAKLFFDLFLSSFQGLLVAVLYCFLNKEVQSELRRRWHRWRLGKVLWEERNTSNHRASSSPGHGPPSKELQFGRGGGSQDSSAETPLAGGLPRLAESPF
T2 sequence (P43220 24-463, species assumed): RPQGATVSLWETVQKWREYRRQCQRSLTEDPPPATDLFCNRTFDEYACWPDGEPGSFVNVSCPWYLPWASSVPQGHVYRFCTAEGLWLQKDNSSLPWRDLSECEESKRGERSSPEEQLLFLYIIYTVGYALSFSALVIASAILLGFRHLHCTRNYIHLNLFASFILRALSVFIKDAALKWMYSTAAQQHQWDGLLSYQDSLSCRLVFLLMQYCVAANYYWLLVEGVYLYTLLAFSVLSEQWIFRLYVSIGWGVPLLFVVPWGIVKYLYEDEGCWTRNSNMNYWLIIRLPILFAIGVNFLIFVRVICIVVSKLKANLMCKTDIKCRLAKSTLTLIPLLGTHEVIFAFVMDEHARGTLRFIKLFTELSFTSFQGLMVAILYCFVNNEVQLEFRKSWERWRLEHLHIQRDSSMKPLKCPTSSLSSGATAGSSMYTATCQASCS

For `CC[C@H](C)[C@H](NC(=O)[C@H](Cc1ccccc1)NC(=O)[C@H](C)NC(=O)[C@H](CCCNC(=N)N)NC(=O)[C@H](C)NC(=O)[C@H](CCCNC(=N)N)NC(=O)[C@H](CCCCNC(=O)COCCOCCNC(=O)CC[C@H](NC(=O)CCCCCCCCCCCCCCCCCCC(=O)O)C(=O)O)NC(=O)[C@H](CCC(=O)O)NC(=O)[C@H](CC(=O)O)NC(=O)[C@H](CC(C)C)NC(=O)[C@H](CC(C)C)NC(=O)[C@@H](NC(=O)[C@H](CO)NC(=O)[C@H](Cc1ccc(O)cc1)NC(=O)[C@H](CC(=O)O)NC(=O)[C@H](CO)NC(=O)[C@@H](NC(=O)[C@](C)(Cc1ccccc1F)NC(=O)[C@@H](NC(=O)CNC(=O)[C@H](CCC(N)=O)NC(=O)C(C)(C)NC(=O)[C@@H](N)Cc1ccc(O)cc1)[C@@H](C)O)[C@@H](C)O)[C@@H](C)CC)C(=O)N[C@@H](CCC(=O)O)C(=O)N[C@@H](Cc1ccc(O)cc1)C(=O)N[C@@H](CC(C)C)C(=O)N[C@@H](CC(C)C)C(=O)N[C@@H](C)C(=O)NCC(=O)NCC(=O)N1CCC[C@H]1C(=O)N[C@@H](CO)C(=O)N[C@@H](CO)C(=O)NCC(=O)N[C@@H](C)C(=O)N1CCC[C@H]1C(=O)N1CCC[C@H]1C(=O)N1CCC[C@H]1C(=O)N[C@@H](CO)C(=O)O` [HEC-PT88], the EC50 at GCGR was 0.035 nM; at GLP-1R, 0.13 nM; on GIPR it was 0.485 nM.
Consider `CC[C@H](C)[C@H](NC(=O)[C@H](Cc1ccccc1)NC(=O)[C@H](C)NC(=O)[C@H](CCC(N)=O)NC(=O)[C@H](CCC(N)=O)NC(=O)[C@H](CCCNC(=N)N)NC(=O)[C@@H](NC(=O)[C@H](CCCCN)NC(=O)[C@H](CC(=O)O)NC(=O)[C@H](CCCCNC(=O)COCCOCCNC(=O)CC[C@H](NC(=O)CCCCCCCCCCCCCCCCC(=O)O)C(=O)O)NC(=O)[C@H](CC(C)C)NC(=O)[C@@H](NC(=O)[C@H](CO)NC(=O)[C@H](Cc1ccc(O)cc1)NC(=O)[C@H](CC(=O)O)NC(=O)[C@H](CO)NC(=O)[C@@H](NC(=O)[C@](C)(Cc1ccccc1F)NC(=O)[C@@H](NC(=O)CNC(=O)[C@H](CCC(N)=O)NC(=O)C(C)(C)NC(=O)[C@@H](N)Cc1ccc(O)cc1)[C@@H](C)O)[C@@H](C)O)[C@@H](C)CC)[C@@H](C)CC)C(=O)N[C@@H](CCC(=O)O)C(=O)N[C@@H](Cc1ccc(O)cc1)C(=O)N[C@@H](CC(C)C)C(=O)N[C@@H](CC(C)C)C(=O)N[C@@H](CCC(=O)O)C(=O)NCC(=O)NCC(=O)N1CCC[C@H]1C(=O)N[C@@H](CO)C(=O)N[C@@H](CO)C(=O)NCC(=O)N[C@@H](C)C(=O)N1CCC[C@H]1C(=O)N1CCC[C@H]1C(=O)N1CCC[C@H]1C(=O)N[C@@H](CO)C(N)=O` [HEC-PT143] (H-Y[Aib]QGT[αMePhe(2-F)]TSDYSILK([AEEA-γGlu-C18 diacid])DKIRQQAFIEYLLEGGPSSGAPPPS-NH2), for which the EC50 at GCGR stood at 0.173 nM; at GLP-1R it was 0.14 nM; at GIPR, 0.063 nM.
For `CC[C@H](C)[C@H](NC(=O)[C@H](Cc1ccccc1)NC(=O)[C@H](C)NC(=O)[C@H](CCC(N)=O)NC(=O)[C@H](CCC(N)=O)NC(=O)[C@H](CCCNC(=N)N)NC(=O)[C@H](CCCCNC(=O)COCCOCCNC(=O)CC[C@H](NC(=O)CCCCCCCCCCCCCCCCCCC(=O)O)C(=O)O)NC(=O)[C@H](CCCNC(=N)N)NC(=O)[C@H](CC(=O)O)NC(=O)[C@H](CC(C)C)NC(=O)[C@H](CC(C)C)NC(=O)[C@@H](NC(=O)[C@H](CO)NC(=O)[C@H](Cc1ccc(O)cc1)NC(=O)[C@H](CC(=O)O)NC(=O)[C@H](CO)NC(=O)[C@@H](NC(=O)[C@](C)(Cc1ccccc1F)NC(=O)[C@@H](NC(=O)CNC(=O)[C@H](CCC(N)=O)NC(=O)C(C)(C)NC(=O)[C@@H](N)Cc1ccc(O)cc1)[C@@H](C)O)[C@@H](C)O)[C@@H](C)CC)C(=O)N[C@@H](CCC(=O)O)C(=O)N[C@@H](Cc1ccc(O)cc1)C(=O)N[C@@H](CC(C)C)C(=O)N[C@@H](CC(C)C)C(=O)N[C@@H](C)C(=O)NCC(=O)NCC(=O)N1CCC[C@H]1C(=O)N[C@@H](CO)C(=O)N[C@@H](CO)C(=O)NCC(=O)N[C@@H](C)C(=O)N1CCC[C@H]1C(=O)N1CCC[C@H]1C(=O)N1CCC[C@H]1C(=O)N[C@@H](CO)C(=O)O` [HEC-PT128], the EC50 at GCGR is 0.128 nM; at GLP-1R, 0.38 nM; on GIPR, 0.0608 nM.
Take `CC[C@H](C)[C@H](NC(=O)[C@H](CCCCN)NC(=O)[C@H](CC(=O)O)NC(=O)[C@H](CCCCNC(=O)COCCOCCNC(=O)CC[C@H](NC(=O)CCCCCCCCCCCCCCCCC(=O)O)C(=O)O)NC(=O)[C@H](CC(C)C)NC(=O)[C@@H](NC(=O)[C@H](CO)NC(=O)[C@H](Cc1ccc(O)cc1)NC(=O)[C@H](CC(=O)O)NC(=O)[C@H](CO)NC(=O)[C@@H](NC(=O)[C@](C)(Cc1ccccc1F)NC(=O)[C@@H](NC(=O)CNC(=O)[C@H](CCC(N)=O)NC(=O)C(C)(C)NC(=O)[C@@H](N)Cc1ccc(O)cc1)[C@@H](C)O)[C@@H](C)O)[C@@H](C)CC)C(=O)N[C@@H](C)C(=O)N[C@@H](CCC(N)=O)C(=O)N[C@@H](CCCCN)C(=O)N[C@@H](C)C(=O)N[C@@H](Cc1ccccc1)C(=O)N[C@H](C(=O)N[C@@H](CCC(=O)O)C(=O)N[C@@H](Cc1ccc(O)cc1)C(=O)N[C@@H](CC(C)C)C(=O)N[C@@H](CC(C)C)C(=O)N[C@@H](C)C(=O)NCC(=O)NCC(=O)N1CCC[C@H]1C(=O)N[C@@H](CO)C(=O)N[C@@H](CO)C(=O)NCC(=O)N[C@@H](C)C(=O)N1CCC[C@H]1C(=O)N1CCC[C@H]1C(=O)N1CCC[C@H]1C(=O)N[C@@H](CO)C(N)=O)[C@@H](C)CC` [HEC-PT140] (H-Y[Aib]QGT[αMePhe(2-F)]TSDYSILK([AEEA-γGlu-C18 diacid])DKIAQKAFIEYLLAGGPSSGAPPPS-NH2): the EC50 at GCGR stood at 0.272 nM; on GLP-1R, 0.152 nM; on GIPR, 0.0543 nM.
Take `CC[C@H](C)[C@H](NC(=O)[C@H](Cc1ccccc1)NC(=O)[C@H](C)NC(=O)[C@H](CCCNC(=N)N)NC(=O)[C@H](CCC(N)=O)NC(=O)[C@H](CCCNC(=N)N)NC(=O)[C@H](CCCCNC(=O)COCCOCCNC(=O)CC[C@H](NC(=O)CCCCCCCCCCCCCCCCC(=O)O)C(=O)O)NC(=O)[C@H](CCC(=O)O)NC(=O)[C@H](CC(=O)O)NC(=O)[C@H](CC(C)C)NC(=O)[C@H](CC(C)C)NC(=O)[C@@H](NC(=O)[C@H](CO)NC(=O)[C@H](Cc1ccc(O)cc1)NC(=O)[C@H](CC(=O)O)NC(=O)[C@H](CO)NC(=O)[C@@H](NC(=O)[C@](C)(Cc1ccccc1F)NC(=O)[C@@H](NC(=O)CNC(=O)[C@H](Cc1c[nH]cn1)NC(=O)C(C)(C)NC(=O)[C@@H](N)Cc1ccc(O)cc1)[C@@H](C)O)[C@@H](C)O)[C@@H](C)CC)C(=O)N[C@@H](CCC(=O)O)C(=O)N[C@@H](Cc1ccc(O)cc1)C(=O)N[C@@H](CC(C)C)C(=O)N[C@@H](CC(C)C)C(=O)N[C@@H](CCC(=O)O)C(=O)NCC(=O)NCC(=O)N1CCC[C@H]1C(=O)N[C@@H](CO)C(=O)N[C@@H](CO)C(=O)NCC(=O)N[C@@H](C)C(=O)N1CCC[C@H]1C(=O)N1CCC[C@H]1C(=O)N1CCC[C@H]1C(=O)N[C@@H](CO)C(=O)O` [HEC-PT120]: the EC50 was 0.2 nM on GCGR, 0.406 nM at GLP-1R and 0.188 nM on GIPR.
The matching figures for `CC[C@H](C)[C@H](NC(=O)[C@H](Cc1ccccc1)NC(=O)[C@H](C)NC(=O)[C@H](CCCCN)NC(=O)[C@H](CCC(N)=O)NC(=O)[C@H](CCCCN)NC(=O)[C@H](CCCCNC(=O)COCCOCCNC(=O)CC[C@H](NC(=O)CCCCCCCCCCCCCCCCCCC(=O)O)C(=O)O)NC(=O)[C@H](CCC(=O)O)NC(=O)[C@H](CC(=O)O)NC(=O)[C@H](CC(C)C)NC(=O)[C@H](CC(C)C)NC(=O)[C@@H](NC(=O)[C@H](CO)NC(=O)[C@H](Cc1ccc(O)cc1)NC(=O)[C@H](CC(=O)O)NC(=O)[C@H](CO)NC(=O)[C@@H](NC(=O)[C@](C)(Cc1ccccc1F)NC(=O)[C@@H](NC(=O)CNC(=O)[C@H](CCC(N)=O)NC(=O)C(C)(C)NC(=O)[C@@H](N)Cc1ccc(O)cc1)[C@@H](C)O)[C@@H](C)O)[C@@H](C)CC)C(=O)N[C@@H](CCC(=O)O)C(=O)N[C@@H](Cc1ccc(O)cc1)C(=O)N[C@@H](CC(C)C)C(=O)N[C@@H](CC(C)C)C(=O)N[C@@H](C)C(=O)NCC(=O)NCC(=O)N1CCC[C@H]1C(=O)N[C@@H](CO)C(=O)N[C@@H](CO)C(=O)NCC(=O)N[C@@H](C)C(=O)N1CCC[C@H]1C(=O)N1CCC[C@H]1C(=O)N1CCC[C@H]1C(=O)N[C@@H](CO)C(N)=O` [HEC-PT131]: 8.07 nM, 0.249 nM and 1.13 nM.

Source of the values: patent publication EP4596574A1, “GLP-1/GCG/GIP TRIPLE-RECEPTOR AGONIST AND USE THEREOF” (Sunshine Lake Pharma Co., Ltd., priority 2022, dated 2024).
